Source: patent publication US20060106049A1, “Histone deacetylase inhibitors and methods of use” (The University of chicago, priority 2004, published 2006)
“Also recorded” adds a separate entry of the source.

What was measured:
MDR1 = test: Gene re-expression by REAL-time RT-PCR in peripheral blood mononuclear cells (MDR1); format: in vivo, human; settings: hr 4 on days 1 and 8; normalized to ABL; p=0.04
Experimental: (§1) FK228 (Fujisawa, Osaka, Japan) was administered intravenously over four hours at a dose of 13.3 mg/m^2/d on days 1, 8, and 15 of a 28-day cycle. Peripheral blood mononuclear cells were obtained prior to (hour 0) and 4 hours (hour 4) and 24 hours (hour 24) after dosing on days 1 and 8 and used to evaluate histone acetylation by flow cytometry and gene re-expression by REAL-time RT-PCR. Target genes of interest include MDR1, a target of HDI-mediated upregulation, and p15^INK4B (P15), a target of DNA hypermethylation in AML.
(§2) MDR1 and p15 copy numbers were expressed as a normalized quotient of MDR1 and p15, respectively, to the housekeeping gene ABL.

HDAC [1] = settings: cited from earlier work
[2] = Tolerability in Phase II AML study; format: in vivo, human; settings: AML patients, 13.3 mg/m2/d iv days 1, 8, 15 of 28-day cycle
Source text: (§3) Eighteen patients (median age=60 years, age range=25-77 years) with relapsed or refractory AML were enrolled in a multicenter Phase II study of depsipeptide for the treatment of AML. Patients were divided into two groups upon entry into the study: Group A (n=14), which included patients without specific chromosomal abnormalities correlated with recruitment of histone deacetylases; and Group B (n=4), which included patients with chromosomal aberrations associated with recruitment of histone deacetylases, such as t(8;21), inv 16, or t(15; 17).
as §1

p15INK4B (P15) = test: Gene re-expression by REAL-time RT-PCR in peripheral blood mononuclear cells (p15); format: in vivo, human; settings: normalized to ABL; p-0.01
Experimental: as §1, §2

H3 acetylation = test: Histone acetylation by flow cytometry in peripheral blood mononuclear cells; format: in vivo, human
Experimental: as §1

bone marrow blasts = test: Phase II study of depsipeptide in relapsed or refractory AML: anti-leukemic response; format: in vivo, human
Source text: as §3, §1

HDAC [3] = settings: formed from FK228 by dithiothreitol reduction in vitro; cited from earlier work

| SMILES | overall mean increase in MDR1 expression (MDR1) [%] | HDAC inhibition in vivo (HDAC [1]) | most common adverse effects [2] | tolerability [2] | mean increase in p15 expression (p15INK4B (P15)) [%] | patients exhibiting increase H3 acetylation (H3 acetylation; 4 of 14 patients) [%] | patients exhibiting an increase in H3 acetylation (H3 acetylation; Group B cohort (3 of 4), at 4 and/or 24 hours after dosing) [%] | response of patient having a t(4;21) translocation (bone marrow blasts; 13.3 mg/m2/d iv days 1, 8, 15 of 28-day cycle) | objective evidence of response (complete or partial remission) or other anti-leukemic activity (bone marrow blasts; Group A (n=14), patients without chromosomal abnormalities correlated with HDAC recruitment, 13.3 mg/m2/d iv over 4 h, days 1, 8, 15 of 28-day cycle) | patients exhibiting marked reduction of bone marrow blasts (bone marrow blasts; Group B (n=4), chromosomal aberrations associated with HDAC recruitment, after one cycle, 13.3 mg/m2/d iv) [%] | time to increase in bone marrow blasts following cessation of therapy (bone marrow blasts; both responding Group B patients, antileukemic effect short-lived) [days] | hematopoiesis in responding patients (bone marrow blasts; responders of Group B, following the second cycle of treatment, 13.3 mg/m2/d iv) | bone marrow blast percentage in responding patients (bone marrow blasts; responders with AML1 translocations (t(8;21), t(4;21)), normocellular marrow after one cycle, 13.3 mg/m2/d iv) [%] | HDAC inhibition (HDAC [3]) |
| --- | --- | --- | --- | --- | --- | --- | --- | --- | --- | --- | --- | --- | --- | --- |
| C/C=C1\NC(=O)[C@H]2CSSCC/C=C/[C@H](CC(=O)N[C@H](C(C)C)C(=O)N2)OC(=O)[C@H](C(C)C)NC1=O [FK228] | 41 | strongly inhibits HDAC | grade ½ nausea, vomiting, and fatigue | well tolerated | 91 | 28 | 75 | responded to the treatment | No objective evidence of response | 50 | ≤ 30 | return to substantially normal hematopoiesis; also recorded: recovery of near-normal hematopoiesis | < 5 | – |
| C/C=C1\NC(=O)[C@@H](CS)NC(=O)[C@@H](C(C)C)NC(=O)C[C@@H](/C=C/CCS)OC(=O)[C@H](C(C)C)NC1=O [FR135313] | – | – | – | – | – | – | – | – | – | – | – | – | – | capable of inhibiting HDAC |
